Results published in patent publication US8431514B2, “4-cyano-3-benzoylamino-N-phenyl-benzamides for use in pest control” (Syngenta Crop Protection LLC, priority 2009, dated 2013).

Experiments:
Type in all cases: in vivo
Diabrotica balteata = Diabrotica balteata (corn root worm) artificial diet test; conditions: 120 h, application rate 200 ppm (concentration in well 18 ppm), L2 larvae, larval mortality and growth regulation after 5 days
Experimental: (§1) These Examples illustrate the insecticidal and acaricidal properties of the compounds of formula (I). The tests were performed as follows:
(§2) Cotton leaf discs were placed on agar in a 24-well microtiter plate and sprayed with test solutions at an application rate of 200 ppm. After drying, the leaf discs were infested with 5 L1 larvae. The samples were checked for mortality, feeding behavior, and growth regulation 3 days after treatment (DAT). The following compound gave at least 80% control of Spodoptera littoralis: A1, A2, A3, A4, A5, A6, A7, A8, A9, A10, A11, A12, A14, A15, A16, A17, A18, A19, A20. Heliothis Virescens (Tobacco Budworm): Eggs (0-24 h old) were placed in 24-well microtiter plate on artificial diet and treated with test solutions at an application rate of 200 ppm (concentration in well 18 ppm) by pipetting. After an incubation period of 4 days, samples were checked for egg mortality, larval mortality, and growth regulation. The following compound gave at least 80% control of Heliothis virescens: A1, A2, A3, A4, A5, A6, A7, A8, A9, A10, A11, A12, A14, A15, A16, A17, A18, A19, A20. Plutella Xylostella (Diamond Back Moth): 24-well microtiter plate (MTP) with artificial diet was treated with test solutions at an application rate of 200 ppm (concentration in well 18 ppm) by pipetting. After drying, the MTP's were infested with L2 larvae (7-12 per well). After an incubation period of 6 days, samples were checked for larval mortality and growth regulation. The following compound gave at least 80% control of Plutella xylostella: A1, A2, A3, A4, A5, A6, A7, A8, A9, A10, A11, A12, A13, A14, A15, A16, A17, A18, A19, A20. Diabrotica Balteata (Corn Root Worm): A 24-well microtiter plate (MTP) with artificial diet was treated with test solutions at an application rate of 200 ppm (concentration in well 18 ppm) by pipetting. After drying, the MTP's were infested with L2 larvae (6-10 per well). After an incubation period of 5 days, samples were checked for larval mortality and growth regulation. The following compound gave at least 80% control of Diabrotica balteata: A1, A2, A3, A4, A5, A6, A7, A8, A9, A10, A11, A12, A13, A14, A16, A17, A18, A19, A20. Thrips Tabaci (Onion Thrips): Sunflower leaf discs were placed on agar in a 24-well microtiter plate and sprayed with test solutions at an application rate of 200 ppm. After drying, the leaf discs were infested with an […] population of mixed ages. After an incubation period of 7 days, samples were checked for mortality. The following compounds gave at least 80% control of Thrips tabaci: A1, A2, A3, A4, A5, A6, A7, A8, A9, A10, A14, A16, A17, A18, A19, A20. Tetranychus Urticae (Two-Spotted Spider Mite): Bean leaf discs on agar in 24-well microtiter plates were sprayed with test solutions at an application rate of 200 ppm. After drying, the leaf discs are infested with mite populations of mixed ages. 8 days later, discs are checked for egg mortality, larval mortality, and adult mortality. The following compounds gave at least 80% control of Tetranychus urticae: A1, A2, A3, A4, A5, A6, A7, A8, A9, A10, A11, A12, A13, A14, A15, A16, A17, A19, A20.

Plutella xylostella = Plutella xylostella (diamond back moth) artificial diet test; conditions: 144 h, application rate 200 ppm (concentration in well 18 ppm), L2 larvae, larval mortality and growth regulation after 6 days
Experimental: as §1, §2

Tetranychus urticae = Tetranychus urticae (two-spotted spider mite) bean leaf disc spray test; conditions: foliar, 192 h, application rate 200 ppm, bean leaf discs, mite populations of mixed ages, egg, larval and adult mortality 8 days later, read-out: control of Tetranychus urticae
Experimental: as §1, §2

Heliothis virescens = Heliothis virescens (tobacco budworm) egg test on artificial diet; conditions: 96 h, application rate 200 ppm (concentration in well 18 ppm), eggs 0-24 h old on artificial diet, egg mortality, larval mortality and growth regulation after 4 days
Experimental: as §1, §2

Spodoptera littoralis = Spodoptera littoralis (Egyptian cotton leafworm) leaf disc spray test; conditions: foliar, 72 h, application rate 200 ppm, cotton leaf discs, 5 L1 larvae, mortality, feeding behavior and growth regulation 3 days after treatment
Experimental: as §1, §2

Thrips tabaci = Thrips tabaci (onion thrips) sunflower leaf disc spray test; conditions: foliar, 168 h, application rate 200 ppm, sunflower leaf discs, population of mixed ages, mortality after 7 days
Experimental: as §1, §2

Measured: pest or weed control at 200 ppm

Cc1cc(C#N)ccc1C(=O)Nc1cc(C(=O)Nc2c(Cl)cc(C(O)(C(F)(F)F)C(F)(F)F)cc2Br)ccc1C#N [A13, N-[2-bromo-6-chloro-4-[1,1,1,3,3,3-hexafluoropropan-2-ol)phenyl]-4-cyano-3-(4′-cyano-2′-methylbenzoylamino)benzamide]
≥ 80%: Diabrotica balteata | Plutella xylostella | Tetranychus urticae

Cc1cc(C#N)ccc1C(=O)Nc1cc(C(=O)Nc2c(Cl)cc(C(F)(C(F)(F)F)C(F)(F)C(F)(F)F)cc2Br)ccc1C#N (stereo not shown) [A2, N-[2-bromo-6-chloro-4-(1,2,2,3,3,3-hexafluoro-1-trifluoromethylpropyl)-phenyl]-4-cyano-3-(4′-cyano-2′-methylbenzoylamino)benzamide]
≥ 80%: all assays above

CCc1cc(C(O)(C(F)(F)F)C(F)(F)C(F)(F)F)cc(C)c1NC(=O)c1ccc(C#N)c(NC(=O)c2ccc(C#N)cc2C)c1 (stereo not shown) [A15, 4-cyano-3-(4′-cyano-2′-methyl-benzoylamino)-N-[2-ethyl-6-methyl-4-(2,2,3,3,3-pentafluoro-1-hydroxy-1-trifluoromethylpropyl)phenyl]benzamide]
≥ 80%: Plutella xylostella | Heliothis virescens | Spodoptera littoralis | Tetranychus urticae

Cc1cc(C#N)ccc1C(=O)Nc1c(C#N)ccc(C(=O)Nc2c(Cl)cc(C(F)(C(F)(F)F)C(F)(F)C(F)(F)F)cc2Cl)c1F (stereo not shown) [A18, 4-cyano-3-(4′-cyano-2′-methylbenzoylamino)-N-[2,6-dichloro-4-(1,2,2,3,3,3-hexafluoro-1-trifluoromethylpropyl)phenyl]-2-fluorobenzamide]
not listed: Tetranychus urticae
≥ 80%: all other assays above

Cc1cc(C#N)ccc1C(=O)Nc1cc(C(=O)Nc2c(Cl)cc(C(F)(C(F)(F)F)C(F)(F)F)cc2Cl)ccc1C#N [A19, 4-cyano-3-(4′-cyano-2′-methylbenzoylamino)-N-[2,6-dichloro-4-(1,2,2,2-tetrafluoro-1-trifluoromethylethyl)phenyl]benzamide]
≥ 80%: all assays above

CCc1cc(C(F)(C(F)(F)F)C(F)(F)C(F)(F)F)cc(Br)c1NC(=O)c1ccc(C#N)c(NC(=O)c2ccc(C#N)cc2C)c1 (stereo not shown) [A5, N-[2-bromo-6-ethyl-4-(1,2,2,3,3,3-hexafluoro-1-trifluoromethylpropyl)-phenyl]-4-cyano-3-(4′-cyano-2′-methylbenzoylamino)benzamide]
≥ 80%: all assays above

Cc1cc(C#N)ccc1C(=O)Nc1cc(C(=O)Nc2c(Br)cc(C(F)(C(F)(F)F)C(F)(F)F)cc2Br)ccc1C#N [A3, 4-cyano-3-(4′-cyano-2′-methylbenzoylamino)-N-[2,6-dibromo-4-(1,2,2,2-tetrafluoro-1-trifluoromethylethyl)phenyl]benzamide]
≥ 80%: all assays above

Cc1cc(C#N)ccc1C(=O)Nc1cc(C(=O)Nc2c(Cl)cc(C(F)(C(F)(F)F)C(F)(F)F)c(F)c2Cl)ccc1C#N [A14, 4-cyano-3-(4′-cyano-2′-methylbenzoylamino)-N-[2,6-dichloro-3-fluoro-4-(1,2,2,2-tetrafluoro-1-trifluoromethylethyl)phenyl]benzamide]
≥ 80%: all assays above

Cc1cc(C#N)ccc1C(=O)Nc1cc(C(=O)Nc2c(Cl)cc(C(F)(C(F)(F)F)C(F)(F)C(F)(F)F)cc2C#N)ccc1C#N (stereo not shown) [A7, N-[2-chloro-6-cyano-4-(1,2,2,3,3,3-hexafluoro-1-trifluoromethylpropyl)-phenyl]-4-cyano-3-(4′-cyano-2′-methylbenzoylamino)benzamide]
≥ 80%: all assays above

Cc1cc(C#N)ccc1C(=O)Nc1cc(C(=O)Nc2c(Cl)cc(C(F)(C(F)(F)F)C(F)(F)F)cc2Br)ccc1C#N [A20, 4-cyano-3-(4′-cyano-2′-methylbenzoylamino)-N-[2-bromo-6-chloro-4-(1,2,2,2-tetrafluoro-1-trifluoromethylethyl)phenyl]benzamide]
≥ 80%: all assays above

CSc1cc(C(F)(C(F)(F)F)C(F)(F)C(F)(F)F)cc(Cl)c1NC(=O)c1ccc(C#N)c(NC(=O)c2ccc(C#N)cc2C)c1 (stereo not shown) [A10, N-[2-chloro-4-(1,2,2,3,3,3-hexafluoro-1-trifluoromethylpropyl)-6-methylthiophenyl]-4-cyano-3-(4′-cyano-2′-methylbenzoylamino)benzamide]
≥ 80%: all assays above

Cc1cc(C#N)ccc1C(=O)Nc1cc(C(=O)Nc2c(Cl)cc(C(OC(=O)c3ccccc3)(C(F)(F)F)C(F)(F)F)cc2Br)ccc1C#N [A12, benzoic acid 1-{3-bromo-5-chloro-4-[4-cyano-3-(4-cyano-2-methyl-benzoylamino)benzoylamino]phenyl}-2,2,2-trifluoro-1-trifluoromethylethyl ester]
not listed: Thrips tabaci
≥ 80%: all other assays above

COc1cc(C(F)(C(F)(F)F)C(F)(F)C(F)(F)F)cc(C)c1NC(=O)c1ccc(C#N)c(NC(=O)c2ccc(C#N)cc2C)c1 (stereo not shown) [A11, 4-cyano-3-(4′-cyano-2′-methylbenzoylamino)-N-[2-methoxy-6-methyl-4-(1,2,2,3,3,3-hexafluoro-1-trifluoromethylpropyl)phenyl]benzamide]
not listed: Thrips tabaci
≥ 80%: all other assays above
